For this experiment, the target named is human PAD4 (hPAD4) (Homo sapiens, UniProt Q9UM07). The experiment is described as follows: RFMS human PAD4 functional assay (rapid-fire mass spectrum). The format is biochemical. The following applies: 5 nM hPAD4 enzyme, 250 μM BAEE, 50 μM Calcium; 30 min preincubation, 90 min reaction at 37° C. In outline: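 PAD4 (10 nM) preincubated 30 min with compound (top final 50 μM), then BAEE substrate added in pH 7.5 HEPES buffer with DTT, 50 μM calcium, TPEN; 90 min at 37° C. After TCA quench, citrulline derivatized with phenyl glyoxal (4 mM final, 30 min, 37° C) and quantified by RapidFire MS against internal standard.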
Chain of human PAD4 (hPAD4) (Q9UM07 whole entry): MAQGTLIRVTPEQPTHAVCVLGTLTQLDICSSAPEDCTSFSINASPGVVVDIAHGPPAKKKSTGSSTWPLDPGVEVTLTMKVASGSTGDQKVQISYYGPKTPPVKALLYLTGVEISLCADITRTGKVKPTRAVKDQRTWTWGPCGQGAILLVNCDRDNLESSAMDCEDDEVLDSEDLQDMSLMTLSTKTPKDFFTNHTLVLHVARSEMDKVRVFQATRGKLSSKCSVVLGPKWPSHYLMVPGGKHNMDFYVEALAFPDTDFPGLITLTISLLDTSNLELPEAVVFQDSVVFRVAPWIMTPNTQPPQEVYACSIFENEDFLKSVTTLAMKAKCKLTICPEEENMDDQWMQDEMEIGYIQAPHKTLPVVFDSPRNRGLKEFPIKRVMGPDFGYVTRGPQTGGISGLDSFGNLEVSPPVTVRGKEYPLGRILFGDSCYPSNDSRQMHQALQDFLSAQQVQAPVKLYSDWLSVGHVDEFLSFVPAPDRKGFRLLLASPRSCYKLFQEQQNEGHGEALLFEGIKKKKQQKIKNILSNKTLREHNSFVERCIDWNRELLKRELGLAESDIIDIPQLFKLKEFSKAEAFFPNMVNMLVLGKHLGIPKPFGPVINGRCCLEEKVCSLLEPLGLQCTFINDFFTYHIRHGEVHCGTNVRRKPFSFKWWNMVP

What is called IC50 is the concentration that gives 50% inhibition. In the case of `COc1cc(C(=O)N2CC3CCC2[C@@H]3N)cc2nc(-c3cc4ccccc4n3CC3CC3)n(Cc3cnn(-c4cc(Cl)ccn4)c3)c12` (stereo partly drawn) [Example 392, (7R)-2-(1-{[1-(4-chloropyridin-2-yl)-1H-pyrazol-4-yl]methyl}-2-[1-(cyclopropylmethyl)-1H-indol-2-yl]-7-methoxy-1H-1,3-benzodiazole-5-carbonyl)-2-azabicyclo[2.2.1]heptan-7-amine], the IC50 was 48 nM.
In the case of `COc1cc(C(=O)N2C[C@H]3CC[C@@H]2[C@@H]3N)cc2nc(-c3cc4ccccc4n3CC3CC3)n(Cc3ccccn3)c12` [Example 280, (1R,4R,7R)-2-{2-[1-(cyclopropylmethyl)-1H-indol-2-yl]-7-methoxy-1-[(pyridin-2-yl)methyl]-1H-1,3-benzodiazole-5-carbonyl}-2-azabicyclo[2.2.1]heptan-7-amine], the IC50 was 555 nM.
As for `COc1cc(C(=O)N2C[C@H]3CC[C@@H]2[C@@H]3N)cc2nc(-c3cc4cccnc4n3CC3CC3)n(CC3CN(C(=O)c4ccc(Cl)nc4)C3)c12` [Example 120, (1R,4R,7R)-2-(1-{[1-(6-chloropyridine-3-carbonyl)azetidin-3-yl]methyl}-2-[1-(cyclopropylmethyl)-1H-pyrrolo[2,3-b]pyridin-2-yl]-7-methoxy-1H-1,3-benzodiazole-5-carbonyl)-2-azabicyclo[2.2.1]heptan-7-amine], the IC50 is 73 nM.
For the molecule `COc1cc(C(=O)N2C[C@H]3CC[C@@H]2[C@@H]3N)cc2nc(-c3cc4cccnc4n3CC3CC3)n(C3CN(C(=O)c4ccnc(N)n4)C3)c12` [Example 101, (1R,4R,7R)-2-{1-[1-(2-aminopyrimidine-4-carbonyl)azetidin-3-yl]-2-[1-(cyclopropylmethyl)-1H-pyrrolo[2,3-b]pyridin-2-yl]-7-methoxy-1H-1,3-benzodiazole-5-carbonyl}-2-azabicyclo[2.2.1]heptan-7-amine], the IC50 came to 125 nM.
For `COc1cc(C(=O)N2CC3CCC2C3N)cc2nc(-c3cc4cccnc4n3CC3CC3)n(CC3CCN(C(=O)c4ccc(C#N)cc4)C3)c12` [Example 201, 4-[(3S)-3-({5-[(1R,4R,7R)-7-amino-2-azabicyc1o[2.2.1]heptane-2-carbonyl]-2-[1-(cyclopropylmethyl)-1H-pyrrolo[2,3-b]pyridin-2-yl]-7-methoxy-1H-1,3-benzodiazol-1-yl}methyl)pyrrolidine-1-carbonyl]benzonitrile], the IC50 came to 18 nM.
Next, `COc1cc(C(=O)N2C[C@H]3CC[C@@H]2[C@@H]3N)cc2nc(-c3cc4cccnc4n3CC3CC3)n(CC3CN(C(=O)CNC(C)=O)C3)c12` [Example 186, N-{2-[3-({5-[(1R,4R,7R)-7-amino-2-azabicyclo[2.2.1]heptane-2-carbonyl]-2-[1-(cyclopropylmethyl)-1H-pyrrolo[2,3-b]pyridin-2-yl]-7-methoxy-1H-1,3-benzodiazol-1-yl}methyl)azetidin-1-yl]-2-oxoethyl}acetamide]: 316 nM; `COc1cc(C(=O)N2C[C@H]3CC[C@@H]2[C@@H]3N)cc2nc(-c3cc4cccnc4n3CC3CC3)n(CC3CN(c4ccnc(S(C)(=O)=O)n4)C3)c12` [Example 18, (1R,4R,7R)-2-{2-[1-(cyclopropylmethyl)-1H-pyrrolo[2,3-b]pyridin-2-yl]-1-{[1-(2-methanesulfonylpyrimidin-4-yl)azetidin-3-yl]methyl}-7-methoxy-1H-1,3-benzodiazole-5-carbonyl}-2-azabicyclo[2.2.1]heptan-7-amine]: 54 nM.
The same measure for `COc1cc(C(=O)N2C[C@H]3CC[C@@H]2[C@@H]3N)cc2nc(-c3cc4cccnc4n3CC3CC3)n(C[C@H]3CCN(c4ccnc(C#N)n4)C3)c12` [Example 204, 4-[(3S)-3-({5-[(1R,4R,7R)-7-amino-2-azabicyclo[2.2.1]heptane-2-carbonyl]-2-[1-(cyclopropylmethyl)-1H-pyrrolo[2,3-b]pyridin-2-yl]-7-methoxy-1H-1,3-benzodiazol-1-yl}methyl)pyrrolidin-1-yl]pyrimidine-2-carbonitrile]: 35 nM; for `COc1cc(C(=O)N2CC3CCC2[C@@H]3N)cc2nc(-c3cc4ccccc4n3CC3CC3)n(Cc3cnn(-c4cccnc4O)c3)c12` (stereo partly drawn) [Example 384, 3-[4-({5-[(7R)-7-amino-2-azabicyclo[2.2.1]heptane-2-carbonyl]-2-[1-(cyclopropylmethyl)-1H-indol-2-yl]-7-methoxy-1H-1,3-benzodiazol-1-yl}methyl)-1H-pyrazol-1-yl]pyridin-2-ol]: 41 nM; for `COc1cc(C(=O)N2C[C@H](N)C[C@@H](F)C2)cc2nc(-c3cc4cccnc4n3CC3CC3)n(Cc3cnn(-c4ccc(C#N)cn4)c3)c12` [Example 386, 6-[4-({5-[(3R,5R)-3-amino-5-fluoropiperidine-1-carbonyl]-2-[1-(cyclopropylmethyl)-1H-pyrrolo[2,3-b]pyridin-2-yl]-7-methoxy-1H-1,3-benzodiazol-1-yl}methyl)-1H-pyrazol-1-yl]pyridine-3-carbonitrile]: 42 nM.
The same measure for `COc1ccc(C(=O)N2CC(Cn3c(-c4cc5ccccc5n4CC4CC4)nc4cc(C(=O)N5C[C@H]6CC[C@@H]5[C@@H]6N)cc(OC)c43)C2)cc1` [Example 153, (1R,4R,7R)-2-{2-[1-(cyclopropylmethyl)-1H-indol-2-yl]-7-methoxy-1-{[1-(4-methoxybenzoyl)azetidin-3-yl]methyl}-1H-1,3-benzodiazole-5-carbonyl}-2-azabicyclo[2.2.1]heptan-7-amine]: 21 nM; for `COc1cc(C(=O)N2C[C@H]3CC[C@@H]2[C@@H]3N)cc2nc(-c3cc4cccnc4n3CC3CC3)n(CC3CN(S(=O)(=O)C(F)(F)F)C3)c12` [Example 325, (1R,4R,7R)-2-{2-[1-(cyclopropylmethyl)-1H-pyrrolo[2,3-b]pyridin-2-yl]-7-methoxy-1-[(1-trifluoromethanesulfonylazetidin-3-yl)methyl]-1H-1,3-benzodiazole-5-carbonyl}-2-azabicyclo[2.2.1]heptan-7-amine]: 163 nM.
In the case of `COc1cc(C(=O)N2C[C@H](N)C[C@@H](F)C2)cc2nc(-c3cc4ccccc4n3CC3CC3)n(Cc3ccncc3)c12` [Example 287, (3R,5R)-1-{2-[1-(cyclopropylmethyl)-1H-indol-2-yl]-7-methoxy-1-[(pyridin-4-yl)methyl]-1H-1,3-benzodiazole-5-carbonyl}-5-fluoropiperidin-3-amine], the half-inhibitory concentration (IC50) was 1230 nM.
In the case of `COc1cc(C(=O)N2C[C@H]3CC[C@@H]2[C@@H]3N)cc2nc(-c3cc4cccnc4n3CC3CC3)n(C3CN(c4cnc(C#N)nc4)C3)c12` [Example 82, 5-(3-{5-[(1R,4R,7R)-7-amino-2-azabicyclo[2.2.1]heptane-2-carbonyl]-2-[1-(cyclopropylmethyl)-1H-pyrrolo[2,3-b]pyridin-2-yl]-7-methoxy-1H-1,3-benzodiazol-1-yl}azetidin-1-yl)pyrimidine-2-carbonitrile], the IC50 came out at 424 nM.
The same measure for `COc1cc(C(=O)N2CC3CCC2[C@@H]3N)cc2nc(-c3cc4ccccc4n3CC3CC3)n(Cc3nc[nH]n3)c12` (stereo partly drawn) [Example 510, (7R)-2-{2-[1-(cyclopropylmethyl)-1H-indol-2-yl]-7-methoxy-1-[(1H-1,2,4-triazol-3-yl)methyl]-1H-1,3-benzodiazole-5-carbonyl}-2-azabicyclo[2.2.1]heptan-7-amine]: 326 nM.
The same measure for `COc1cc(C(=O)N2CC3CCC2[C@@H]3N)cc2nc(-c3cc4cccnc4n3CC3CC3)n(CCNC(C)=O)c12` (stereo partly drawn) [Example 289, N-(2-{5-[(1R,4R,7R)-7-amino-2-azabicyclo[2.2.1]heptane-2-carhonyl]-2-[1-(cyclopropylmethyl)-1H-pyrrolo[2,3-b]pyridin-2-yl]-7-methoxy-1H-1,3-benzodiazol-1-yl}ethyl)acetamide]: 1290 nM.
The same measure for `COc1cc(C(=O)N2CC3CCC2[C@@H]3N)cc2nc(-c3cc4cccnc4n3CC3CC3)n(Cc3cnn(C)c3C)c12` (stereo partly drawn) [Example 486, (7R)-2-{2-[1-(cyclopropylmethyl)-1H-pyrrolo[2,3-b]pyridin-2-yl]-l-[(1,5-dimethyl-1H-pyrazol-4-yl)methyl]-7-methoxy-1H-1,3-benzodiazole-5-carbonyl}-2-azabicyclo[2.2.1]heptan-7-amine]: 45 nM; for `COc1cc(C(=O)N2C[C@H]3CC[C@@H]2[C@@H]3N)cc2nc(-c3cc4cccnc4n3CC3CC3)n(Cc3cnn(C)c3)c12` [Example 243, (1R,4R,7R)-2-{2-[1-(cyclopropylmethyl)-1H-pyrrolo[2,3-b]pyridin-2-yl]-7-methoxy-1-[(1-methyl-1H-pyrazol-4-yl)methyl]-1H-1,3-benzodiazole-5-carbonyl}-2-azabicyclo[2.2.1]heptan-7-amine]: 33 nM; for `COc1cc(C(=O)N2C[C@H](N)C[C@@H](F)C2)cc2nc(-c3cc4ccccc4n3CC3CC3)n(CC3CC(=O)N(C)C3)c12` (mixture of isomers) [Example 281, 4-({5-[(3R,5R)-3-amino-5-fluoropiperidine-1-carbonyl]-2-[1-(cyclopropylmethyl)-1H-indol-2-yl]-7-methoxy-1H-1,3-benzodiazol-1-yl}methyl)-1-methylpyrrolidin-2-one]: 649 nM.
As to `COc1cc(C(=O)N2C[C@H]3CC[C@@H]2[C@@H]3N)cc2nc(-c3cc4cccnc4n3CC3CC3)n(CC3CN(c4cnc(C#N)nc4)C3)c12` [Example 17, 5-[3-({5-[(1R,4R,7R)-7-amino-2-azabicyclo[2.2.1]heptane-2-carbonyl]-2-[1-(cyclopropylmethyl)-1H-pyrrolo[2,3-b]pyridin-2-yl]-7-methoxy-1H-1,3-benzodiazol-1-yl}methyl)azetidin-1-yl]pyrimidine-2-carbonitrile], the IC50 is 50 nM.
Next, `COc1cc(C(=O)N2C[C@H](N)C[C@@H](F)C2)cc2nc(-c3cc4ccccc4n3CC3CC3)n(CC3CN(c4ccnc(C#N)n4)C3)c12` [Example 4, 4-(3-((5-((3R,5R)-3-amino-5-fluoropiperidine-1-carbonyl)-2-(1-(cyclopropylmethyl)-1H-indol-2-yl)-7-methoxy-1H-benzo[d]imidazol-1-yl)methyl)azetidin-1-yl)pyrimidine-2-carbonitrile]: 35 nM.

The values are drawn from patent publication US12692254B2, “Benzimidazole inhibitors of PAD enzymes” (BRISTOL-MYERS SQUIBB COMPANY, priority 2018, dated 2026).
